# Measured values as given in US20140179766A1, “IDENTIFICATION OF THROMBOSIS OR BLEEDING RISK IN AN INDIVIDUAL WITH AND WITHOUT ANTI-PLATELET THERAPY” (ROYAL COLLEGE OF SURGEONS IN IRELAND, priority 2011, published 2014).
# Tested on: 11-dehydro-thromboxane B2 (TxM)
# Assay: Urinary TxM (11-dehydro-thromboxane B2) by liquid chromatography/tandem mass spectrometry in participants of the HACVD sub-study of ASCOT
# Type: in vivo, human
# Conditions: SNP association with TxM seen only in patients not taking aspirin
# Experimental: The genetic determinants of urinary TxM were investigated. 540 participants in the Hypertension Associated Cardiovascular Disease (HACVD) sub-study of ASCOT gave urine samples at two separate time-points. TxM was measured using liquid chromatography/tandem mass spectrometry, expressed as pg/mg creatinine to correct for urine concentration. All subjects were genotyped on the CVD50K chip, a cardiovascular-specific chip with >50,000 SNPs. Usual quality control measures were applied. Linear regression analysis was performed, assuming an additive genetic model, adjusting for the covariates; age, sex, smoking habit, diabetes, systolic blood pressure, BMI, HDL, LDL, aspirin and anti-hypertensive regimen.
# Most interesting of all was the observation that the association of TxM with the 21 PPARGC1β gene SNPs was almost totally driven by the patients not taking aspirin (beta-values range; +184-+392 pg/mg p-values range; 0.00002-0.06), whilst associations between these same 21 SNPs and TxM amongst aspirinated subjects were in large part not statistically significant (beta-values range; −10-+134 pg/mg p-values range; 0.02-0.97).
smiles,measurement,value
CC(=O)Oc1ccccc1C(=O)O [aspirin],Effect on excess production of thromboxane in carriers of PPARGC1β genetic variants,"completely, or in large part, blocks the excess production of thromboxane"
